Where two headings read alike, the source gives them in different places.
Tests used:
insects [1] = details: cited from earlier work
insects [2] = test: Length of protection against insect bites after application on the skin (conducted tests); format: in vivo
Source text: Icaridin and DEET are employed in this synergic mixture as active ingredient.

[3] = 5% active ingredient in the repellent
[4] = 10% active ingredient in the repellent
[5] = 15% active ingredient in the repellent
[6] = 20% active ingredient in the repellent

Compound	Repellent Capacity Length of Protection (insects [1]; [3])	Repellent Capacity Length of Protection (insects [1]; [4])	Repellent Capacity Length of Protection (insects [1]; [5])	Repellent Capacity Length of Protection (insects [1]; [6])	Length of protection against insect bites (insects [1]; concentrations between 20 to 25%)	Length of protection against insect bites (insects [2]; 10% concentration in the insect repellent)	Length of protection against insect bites (insects [2]; 20% concentration in the insect repellent)	Repellent Capacity Length of Protection (insects [1]; 50% active ingredient in the repellent)	Length of protection against insect bites (insects [1]; concentration of 50%)	Length of protection against insect bites (insects [2]; 7% concentration in the insect repellent)	Length of protection against insect bites (insects [2]; 50% concentration in the insect repellent)
CCC(C)OC(=O)N1CCCCC1CCO (stereo not drawn) [Icaridin, 1-piperidinecarboxylic acid, 2-(2-hydroxyethyl)-, 1-methylpropyl ester]	1.5 h	4 h	7 h	10 h	up to 10 hours	4 h	10 h				
N,N-dimethyl-3-methylbenzamide [DEET]	1 h	2 h	4 h	6 h				10 h	10 h	2 h	10 h
